Experimental data: patent US10327447B2, “Phosphonate functional antimicrobial coatings for metal surfaces” (NANO SAFE COATINGS INCORPORATED, priority 2013, dated 2019)

Columns and labels:
[1] = tested on: Staphylococcus aureus; test: Minimum inhibitory concentration determination; format: cell-based
Source text: Test organisms included gram-positive and gram-negative bacterial strains: Staphylococcus aureus, Listeria monocytogenes, Salmonella interiditis, and Escherichia coli.

[2] = tested on: Escherichia coli; test: Minimum inhibitory concentration determination; format: cell-based; settings: 1% stock solution in H2O, stabilized or no stabilizer
Experimental: (§1) Solutions of phosphonate antimicrobials (0.01 g/mL or 1%) were dissolved in H2O or ethanol, inoculated with the test organism and serially diluted from 10^−1-10^−3, representing a dilution range from 0.01 g/mL to 0.00001 g/mL, followed by plate counts to determine the minimum inhibitory concentration (MIC) values. Test organisms included gram-positive and gram-negative bacterial strains: Staphylococcus aureus, Listeria monocytogenes, Salmonella interiditis, and Escherichia coli.
(§2) Sample 1 was a 1% solution of compound 3; sample 2 was 1% solution of the sodium salt of compound 3; sample 3 was a 1% solution of compound 3 prepared by HCl dealkylation of N-(3-diisopropoxyphosphorylpropyl)-N,N-dimethyloctadecan-1-ammonium bromide.

[3] = tested on: Listeria monocytogenes; test: Minimum inhibitory concentration determination; format: cell-based; settings: 1% stock solution in H2O, stabilized or no stabilizer
Experimental: as §1, §2

[4] = tested on: Salmonella interiditis; test: Minimum inhibitory concentration determination; format: cell-based; settings: 1% stock solution in H2O, stabilized or no stabilizer
Experimental: as §1, §2

[5] = tested on: Escherichia coli; test: Contact killing on treated stainless steel coupons (large droplet inoculation); format: cell-based; settings: for change in colony forming units (cfu): in as little as four hours
[6] = tested on: bacterial strains; settings: strain not stated; cited from earlier work
[7] = tested on: Pseudomonas sp. CT07; test: Contact killing on treated stainless steel coupons (large droplet inoculation); format: cell-based; settings: in as little as four hours
[8] = tested on: Salmonella enteriditis; test: as above; format: cell-based; settings: in as little as four hours
[9] = tested on: Klebsiella pneumonia; test: as above; format: cell-based; settings: in as little as four hours
[10] = tested on: Listeria monocytogenes; test: as above; format: cell-based
[11] = tested on: Pseudomonas PA01; test: as above; format: cell-based, Pseudomonas aeruginosa PA01; settings: in as little as four hours
[12] = tested on: Arthrobacter; test: as above; format: cell-based; settings: in as little as four hours
[13] = tested on: Staphylococcus aureus; test: as above; format: cell-based; settings: in as little as four hours
[14] = tested on: S. aureus; test: Contact killing on treated titanium coupons; format: cell-based; settings: after three hours of drying on the titanium surface
Experimental: (§3) A one inch by inch TiO2 square was sanded with 600 grain size sand paper, followed by an ethanol (EtOH) rinse. Samples were stored in a 120° C. oven prior to use. A 10 mM solution of compound 3 in EtOH was aerosol spayed onto the TiO2 square, allowed to air dry and placed into 120° C. oven overnight to anneal the compound followed by an EtOH rinse. Spaying, annealing and rinsing were repeated two more times.
(§4) The following bacteria were tested: Pseudomonas sp. CT07, Salmonella enteriditis, Klebsiella pneumonia, Listeria monocytogenes, Arthrobacter, Staphylococcus aureus, Pseudomonas aeruginosa PA01 and Escherichia coli. The preparation of the inoculant was performed by growing overnight cultures (10^5-10^8 cfu/ml) in 10% tryptic soy broth at room temperature and with agitation. The cells were then washed from the broth by using a centrifuge at 9000×g for 2 minutes. This step was performed to remove a nutrition source for the bacteria during the test phase.
(§5) Stainless steel coupons were treated by overnight immersion in a 1% ethanolic solution (aqueous solutions may also be used) of antimicrobial phosphonate and an overnight cure at 100° C. Untreated control (“C”), compound 2 (“S1”), compound 3 (“S2”) and Bio-Protect® AM500 silicone quaternary ammonium salt (N-(3-(trimethoxy)silylpropyl)-N,N-dimethyloctadecan-1-ammonium chloride) treated (“BSC”) stainless steel coupons were then inoculated with 0.1 mL of the overnight bacterial inoculant and were then placed in a fumehood to allow the samples to dry for 2 hours. After the appropriate time lapse the coupons were then placed into a 10 mL tube of sterile 0.9% saline and vigorously vortexed for a minute to remove the adherent cells. A dilution series was made from this solution and the series was plated onto 10% tryptic soy agar plates for enumeration. This was again repeated after 4 hours, 6 hours and 24 hours of drying.
(§6) Titanium metal coupons were treated similarly as above and tested for antibacterial activity against Salmonella and S. aureus.

[15] = tested on: Salmonella; test: Contact killing on treated titanium coupons; format: cell-based; settings: after three hours of drying on the titanium surface
Experimental: as §3, §4, §5, §6

[16] = tested on: Arthrobacter; test: Antimicrobial surface treatment durability (retest after saline storage); format: cell-based; settings: treated titanium coupons stored in saline for 24 hours, washed, dried, re-innoculated
Experimental: Titanium metal coupons treated with compound 2 as in Example 28 were further tested for surface treatment durability. The treated coupons were stored in saline for 24 hours from the first antimicrobial trial, removed, dried, washed with distilled H2O, dried re-innoculated with Arthrobacter and retested.

[17] = tested on: P. aeroguinosa; test: Agar testing of treated titanium coupons; format: cell-based; settings: titanium coupons affixed to agar petri dishes; control fully colonized
Source text: The titanium coupon samples were subjected to agar testing in which the samples were affixed to agar petri dishes and inoculated with P. aeroguinosa.

SMILES | melting point [°C] | change in colony forming units (cfu) [7] | change in colony forming units (cfu) [8] | change in colony forming units (cfu) [9] | antibacterial activity compared to BSC [10] | change in colony forming units (cfu) [11] | change in colony forming units (cfu) [12] | change in colony forming units (cfu) [13] | change in colony forming units (cfu) [5] | bacterial colonies (cfu) on treated titanium surface [14] | bacterial colonies (cfu) on treated titanium surface [15] | further results
CCCCCCCCCCCCCCCCCC[N+](C)(C)CCCP(=O)(OC(C)C)OC(C)C.[Br-] | 54 to 55 |  |  |  |  |  |  |  |  |  |  | 
CCCCCCCCCCCCCCCCCC[N+](C)(C)CCC[Si](OC)(OC)OC.[Cl-] [BSC, N-(3-(trimethoxy)silylpropyl)-N,N-dimethyloctadecan-1-ammonium chloride] |  |  |  |  |  |  |  |  |  |  |  | concentration at which strain was inhibited ([1]; 1% stock solution in H2O, stabilized or no stabilizer): ≤ 100 µg/mL; concentration at which strain was inhibited [2]: ≤ 100 µg/mL; concentration at which strain was inhibited [3]: ≤ 100 µg/mL; concentration at which strain was inhibited [4]: ≤ 100 µg/mL; time to eradication compared to the four hours of S1/S2 [5]: took longer; literature MIC values [6]: 84 µg/mL
CCCCCCCCCCCCCCCCCC[N+](C)(C)CCCP(=O)(OCC)OCC.[Br-] [compound 2, N-(3-diethoxyphosphorylpropyl)-N,N-dimethyloctadecan-1-ammonium Bromide] |  | eradication | eradication | eradication | comparable antibacterial activity | eradication | eradication | eradication | eradication | significant reduction of bacterial colonies | significant reduction of bacterial colonies | inhibition of S. aureus ([1]; 1% solution, even at 100 μg/mL concentrations): highly inhibitory; change in colony forming units (cfu) ([10]; after 24 hours): completely eradicated; colony reductions [16]: 10^6 to 0; visible colonies around or on the samples [17]: no visible colonies
CCCCCCCCCCCCCCCCCC[N+](C)(C)CCCP(=O)(O)O [compound 3, N-(3-phosphonopropyl)-N,N-dimethyloctadecan-1-ammonium Bromide] | 118 to 120 | eradication | eradication | eradication | comparable antibacterial activity | eradication | eradication | eradication | eradication | eradication | eradication | 
